pIC50: −log10 of the molar value. Where two headings read alike, the source gives them in different places. No end group written: not given here.
Legend:
Assay type in all cases: biochemical
Factor Xa = target: T1, Factor Xa (Homo sapiens, UniProt P00742); test: Factor Xa clotting activity in NHP without added APC (Factor Xa-1 Stage clotting assay); conditions: for pIC50: read-out: 50% inhibition of Factor Xa clotting activity
T1 construct: purchased Enzyme Research Laboratories, Southbend, Ind
Description: FIG. 1 illustrates factor Xa clotting activity in the presence of PC311-325. The assay was performed as described in Example 5a6). Solid circles with solid lines depict factor Xa activity of 0.15 nM factor Xa in the presence of PC311-325 and solid triangles with dashed lines depict factor Xa activity in the presence of the control peptide.
FIG. 2 illustrates factor Xa clotting activity in the presence of PC142-155. The assay was performed as described in Example 5a6). Solid circles with solid lines depict factor Xa activity of 0.15 nM factor Xa in NHP in the presence of PC142-155 and solid triangles with dashed lines depict factor Xa activity in the presence of the scrambled peptide.
To determine the effect of the APC-inhibiting peptides, PC311-325 and PC142-155, on the amidolytic activity of Factor Xa, amidolytic assays as described for APC in Example 5a3 were performed using 0.15 nM Factor Xa in the presence of increasing amounts of peptide. Peptide PC311-325 ranged in concentration from 0 to 100 μM whereas peptide PC142-155 ranged in concentration from 0 to 50 μM.
For the assay, 100 μl of 0.15 nM factor Xa, prepared in Example 5a5) were admixed with separate aliquots of either peptide prepared in TBS-BSA at pH 7.4 containing 0.02% NaN3 and 2 mM CaCl2 to form APC-peptide admixtures. After maintenance of the admixtures for 30 minutes at 37° C., 50 μl of 2.4 mM S-2222 in the same buffer were admixed to initiate the amidolytic reaction. The hydrolysis of the substrate was measured as described before.
The Factor Xa-1 Stage assay was conducted as described in Example 5a6). In that assay, the IC50 for peptides PT557-571. PT463-478, PT473-487, PT481-495, X404-418, X415-429 and X329-344 were 50, >500, 25, >500, 50, 115, and 500, respectively.

prothrombinase = prothrombinase assay with purified proteins; conditions: for inhibition of prothrombinase activity in the absence of Factor Va: up to 200 μM PC311-325, up to 250 μM PC142-155
Description: FIG. 3 illustrates prothrombinase activity in the presence of PC311-325. The assay was performed using 1 nM factor Xa, 0.4 nM factor Va, 1.2 μM prothrombin and […] factor Xa in the absence of factor Va in TBS-BSA, 2.5 mM CaCl2, pH 7.4. Unless otherwise specified all prothrombinase assays were carried out in the presence of 50 μM phospholipid vesicles. In all cases solid symbols indicate prothrombinase activity in the presence of factor Va whereas open symbols indicate prothrombinase activity in the […] of factor Va. Solid circles with solid lines indicate prothrombinase activity (with factor Va) in the presence of PC311-325, solid squares with solid lines indicate prothrombinase activity (with factor Va) in the presence of PC311-325 but in the absence of phospholipid vesicles and solid triangles with dashed lines indicate prothrombinase activity (with factor Va) in the presence of the control peptide. Open circles with solid lines denote prothrombinase activity (without factor Va) in the presence of PC311-325 and open triangles with dashed lines denote prothrombinase activity (without factor Va) in the presence of the control peptide.
FIG. 4 illustrates prothrombinase activity in the presence of PC142-155. The assay was performed using 1 nM factor Xa, 0.4 nM factor Va, 1.2 μM prothrombin and 2.5 nM factor Xa in the absence of factor Va in TSB-BSA, 2.5 mM CaCl2, 50 μM phospholipid vesicles, pH 7.4. In all cases solid symbols indicate prothrombinase activity in the […] of factor Va. Solid circles with solid lines indicate prothrombinase activity (with factor Va) in the presence of PC142-155 and solid triangles with dashed lines indicate prothrombinase activity (with factor Va) in the presence of the scrambled peptide. Open circles with solid lines denote prothrombinase activity (without factor Va) in the presence of PC142-155 and open triangles with dashed lines denote prothrombinase activity (without factor Va) in the presence of the scrambled peptide.
Factor Va was determined via its cofactor activity in the activation of prothrombin by Factor Xa. Amounts of Factor Xa (Enzyme Research Lab.), phospholipid vesicles and prothrombin (purified as described by Stenflo, J. Biol. Chem., 25:355-363, (1976) from a barium citrate plasma precipitate purified by DEAE-sephadex chromatography) present in the assay were such that the rate of prothrombin activation was linearly dependent on factor Va and constant over the time course of the experiment. The molar concentration of Factor Xa was determined by active site titration as described by Chase et al., Biochem. Biophys. Res. Commun., 29:508-514 (1967). The molecular weights and extinction coefficients (E280 nm/mg/ml) used in the calculation of protein concentrations were as follows: prothrombin, 72,000 and 1.44; APC, 62,000 and 1.45; and Factor X, 65,300 and 1.16.
In a typical experiment, Factor Va was assayed as follows. An aliquot of the solution containing Va was admixed to a solution containing prothrombin, phospholipids and calcium in individual wells of a 96-well microtiter plate. Prothrombin activation was initiated with the mixture of Factor Xa to the Va-containing wells to form a reaction admixture. Final concentrations of reagents in the reaction mixture were the following: 1.2 μM prothrombin, 1 nM Xa, 0-0.4 nM Va, 50 μM phospholipid-vesicles (phosphatidylserine 20%/phosphatidylcholine 80%; M/M), in 0.05 M Tris-HCl at pH 7.4 containing 0.1 M NaCl, 0.5% BSA and 2.0 mM CaCl2. The reaction was maintained at 22° C. At one minute time intervals from initiation of the reaction, 20 μl aliquots of the reaction admixture were withdrawn and admixed to wells of an ELISA plate containing 80 μl TBS-BSA and 10 mM EDTA at pH 8.0 resulting in the quenching of the prothrombinase reaction. […]

thrombin = thrombin (Homo sapiens, UniProt P00734); test: thrombin amidolytic activity towards chromogenic substrates
[1] = NHP, 0.15 nM factor Xa, no added APC

T1 sequence (P00742 41-179 limits assumed): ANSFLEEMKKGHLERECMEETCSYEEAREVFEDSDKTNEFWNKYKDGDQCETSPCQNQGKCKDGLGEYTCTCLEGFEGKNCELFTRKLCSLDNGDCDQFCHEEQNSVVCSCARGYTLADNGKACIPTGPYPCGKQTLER
T1 sequence (P00742 235-488 limits assumed): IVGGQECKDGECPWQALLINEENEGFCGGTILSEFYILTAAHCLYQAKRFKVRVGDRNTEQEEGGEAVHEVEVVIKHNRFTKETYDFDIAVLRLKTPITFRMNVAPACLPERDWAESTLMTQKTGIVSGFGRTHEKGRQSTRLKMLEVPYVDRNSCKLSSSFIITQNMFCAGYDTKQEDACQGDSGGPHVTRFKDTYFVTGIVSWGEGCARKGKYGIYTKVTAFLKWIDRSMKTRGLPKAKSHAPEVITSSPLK

Compound	pIC50 (Factor Xa; [1])	pIC50 (Factor Xa; clotting assays in plasma)	inhibition of Factor Xa activity (Factor Xa; 100 μM peptide, NHP) [%]	inhibition of prothrombinase activity in the presence of Factor Va (prothrombinase)	inhibition of prothrombinase activity in the absence of Factor Va (prothrombinase)	effect on thrombin amidolytic activity towards chromogenic substrates (thrombin)	pIC50 (prothrombinase; presence of Factor Va, read-out: 50% inhibition of prothrombinase activity)	inhibition of Factor Xa activity (Factor Xa; 50 μM peptide, NHP) [%]	inhibition of Factor Xa activity (Factor Xa; 50 μM peptide, NHP, listed as scrambled control peptide) [%]	inhibition of prothrombinase activity (prothrombinase; 100 μM peptide, presence of Factor Va) [%]
CSCC[C@H](NC(=O)[C@H](CCCNC(=N)N)NC(=O)[C@H](CCCCN)NC(=O)[C@H](Cc1c[nH]c2ccccc12)NC(=O)[C@@H]1CCCN1C(=O)[C@H](CCCNC(=N)N)NC(=O)CN)C(=O)N[C@@H](CCC(=O)O)C(=O)N[C@@H](CCCCN)C(=O)N[C@@H](CCCCN)C(=O)N[C@@H](CCCNC(=N)N)C(=O)N[C@@H](CO)C(=O)N[C@@H](Cc1c[nH]cn1)C(=O)N[C@@H](CC(C)C)C(=O)N[C@@H](CS)C(N)=O [PC142-155, Gly-Arg-Pro-Trp-Lys-Arg-Met-Glu-Lys-Lys-Arg-Ser-His-Leu]	5.00	5.30	–	–	–	–	–	–	–	–
VKFTIRVFNPRNLKI [Control Peptide, reference compound]	–	–	30	very little if any significant inhibition	very little if any significant inhibition	–	–	–	–	–
KRNRTFVLNFIKIPV-NH2 [PC311-325, Lys-Arg-Asn-Arg-Thr-Phe-Val-Leu-Asn-Phe-Ile-Lys-Ile-Pro-Val]	5.15	–	–	–	very little if any significant inhibition	no significant effect	5.10	–	–	–
MHKLREGKWRPKSR [Scrambled peptide, reference compound]	–	–	–	small amount of inhibition	–	no significant effect	–	40	37	40

— US5968751A, “Method for detecting the presence of protein C antibody in a fluid sample” (The Scripps Research Institute, priority 1997, dated 1999)
